We go through 1 compound from patent publication US5827245A, “Transdermal therapeutic system comprising the active subtance 17-β-Estradiol (Anhydrous)” (LTS Lohmann Therapie-Systeme GmbH & Co. KG, priority 1992, dated 1998).

Series [1] is described as follows: Thermal stability / conversion of 17-β-estradiol semihydrate to the anhydrous form. The class given is physicochemical. Here is the method: At room temperature and usual relative humidity of air (20 to 60% relative humidity), 17-β-estradiol is not present in one of the two known modifications (I and II) which are free from crystal water but as a semihydrate (Busetti a. Hospital, Acta Cryst. 1972, B28, 560). Due to the stratified structure of the crystal compound, which is stabilized by hydrogen bridges, and its diffusion density, the hydrate can be heated for a short period of time to temperatures of about 170° C. (Kuhnert-Brandstatter u. Winkler (1976) Scientia Pharmaceutica 44 (3), 177-190) while remaining undecomposed. However, by way of micronization, i.e. increasing the surface of the crystals, it is possible to quantitatively convert 17-β-estradiol semihydrate to its anhydrous form at as low a temperature as about 120° C. According to our own observations, conversion already occurs at about 90° C. where heating is slow (0.2 to 1 K/min) and particularly fine material is used.

For series [2] the following is noted: short period of time; cited from earlier work.

On to `C[C@]12CC[C@@H]3c4ccc(O)cc4CC[C@H]3[C@@H]1CC[C@@H]2O` [17-β-estradiol semihydrate], for which, in series [1] (micronized), the “temperature of quantitative conversion to the anhydrous form” value was “about 120 °C”. In series [1] (slow heating (0.2 to 1 K/min), particularly fine material, own observations), the “temperature at which conversion already occurs” value was “about 90 °C”. Besides, in series [2], the “temperature to which the hydrate can be heated while remaining undecomposed” value was “about 170 °C”.
